{"source": "PubChem BioAssay AID1259407", "about": "(Chemical Carcinogenesis Research Information System (CCRIS), 2018)", "tested_on": "CCRIS mutagenicity, Ames/micronucleus/aberration tests", "experiment": "CCRIS mutagenicity studies", "key": {"[1]": {"conditions": "Test System: AMES SALMONELLA TYPHIMURIUM, Strain/Indicator: TA98, Metabolic Activation: NONE, Method: PREINCUBATION"}, "[2]": {"conditions": "Test System: AMES SALMONELLA TYPHIMURIUM, Strain/Indicator: TA100, Metabolic Activation: NONE, Method: PREINCUBATION"}, "[3]": {"conditions": "Test System: AMES SALMONELLA TYPHIMURIUM, Strain/Indicator: TA1535, Metabolic Activation: NONE, Method: PREINCUBATION"}, "[4]": {"conditions": "Test System: AMES SALMONELLA TYPHIMURIUM, Strain/Indicator: TA1537, Metabolic Activation: NONE, Method: PREINCUBATION"}, "[5]": {"conditions": "Test System: MOUSE LYMPHOMA, Strain/Indicator: L5178Y (TK+/TK-), Metabolic Activation: NONE, Method: SUSPENSION/PLATE"}, "[6]": {"conditions": "Test System: AMES SALMONELLA TYPHIMURIUM, Strain/Indicator: TA98, Metabolic Activation: NONE, Method: STANDARD PLATE"}, "[7]": {"conditions": "Test System: AMES SALMONELLA TYPHIMURIUM, Strain/Indicator: TA98, Metabolic Activation: RAT, LIVER, S-9, AROCLOR 1254, Method: STANDARD PLATE"}, "[8]": {"conditions": "Test System: AMES SALMONELLA TYPHIMURIUM, Strain/Indicator: TA100, Metabolic Activation: NONE, Method: STANDARD PLATE"}, "[9]": {"conditions": "Test System: AMES SALMONELLA TYPHIMURIUM, Strain/Indicator: TA100, Metabolic Activation: RAT, LIVER, S-9, AROCLOR 1254, Method: STANDARD PLATE"}, "[10]": {"conditions": "Test System: AMES SALMONELLA TYPHIMURIUM, Strain/Indicator: TA102, Metabolic Activation: NONE, Method: STANDARD PLATE"}}, "note": "Calls of active or inactive are those of the source. The rule behind the calls is not given here.", "data": [{"smiles": "c1ccc2occc2c1", "values": [{"measurement": "mutagenic call", "setting": "Test System: AMES SALMONELLA TYPHIMURIUM, Strain/Indicator: TA98, Metabolic Activation: HAMSTER, LIVER, S-9, AROCLOR 1254, Method: PREINCUBATION", "result": "inactive; negative"}, {"measurement": "mutagenic call", "setting": "[1]", "result": "inactive; negative"}, {"measurement": "mutagenic call", "setting": "Test System: AMES SALMONELLA TYPHIMURIUM, Strain/Indicator: TA98, Metabolic Activation: RAT, LIVER, S-9, AROCLOR 1254, Method: PREINCUBATION", "result": "inactive; negative"}, {"measurement": "mutagenic call", "setting": "Test System: AMES SALMONELLA TYPHIMURIUM, Strain/Indicator: TA100, Metabolic Activation: HAMSTER, LIVER, S-9, AROCLOR 1254, Method: PREINCUBATION", "result": "inactive; negative"}, {"measurement": "mutagenic call", "setting": "[2]", "result": "inactive; negative"}, {"measurement": "mutagenic call", "setting": "Test System: AMES SALMONELLA TYPHIMURIUM, Strain/Indicator: TA100, Metabolic Activation: RAT, LIVER, S-9, AROCLOR 1254, Method: PREINCUBATION", "result": "inactive; negative"}, {"measurement": "mutagenic call", "setting": "Test System: AMES SALMONELLA TYPHIMURIUM, Strain/Indicator: TA1535, Metabolic Activation: HAMSTER, LIVER, S-9, AROCLOR 1254, Method: PREINCUBATION", "result": "inactive; negative"}, {"measurement": "mutagenic call", "setting": "[3]", "result": "inactive; negative"}, {"measurement": "mutagenic call", "setting": "Test System: AMES SALMONELLA TYPHIMURIUM, Strain/Indicator: TA1535, Metabolic Activation: RAT, LIVER, S-9, AROCLOR 1254, Method: PREINCUBATION", "result": "inactive; negative"}, {"measurement": "mutagenic call", "setting": "Test System: AMES SALMONELLA TYPHIMURIUM, Strain/Indicator: TA1537, Metabolic Activation: HAMSTER, LIVER, S-9, AROCLOR 1254, Method: PREINCUBATION", "result": "inactive; negative"}, {"measurement": "mutagenic call", "setting": "[4]", "result": "inactive; negative"}, {"measurement": "mutagenic call", "setting": "Test System: AMES SALMONELLA TYPHIMURIUM, Strain/Indicator: TA1537, Metabolic Activation: RAT, LIVER, S-9, AROCLOR 1254, Method: PREINCUBATION", "result": "inactive; negative"}, {"measurement": "mutagenic call", "setting": "[5]", "result": "active; positive"}]}, {"smiles": "CCCOC(=O)NO", "values": [{"measurement": "mutagenic call", "setting": "Test System: E. COLI, Strain/Indicator: WP2 UVRA, Metabolic Activation: NONE, Method: FLUCTUATION TEST", "result": "active; positive"}]}, {"smiles": "Cc1c(N=O)c(=O)n(-c2ccccc2)n1C", "values": [{"measurement": "mutagenic call", "setting": "Test System: AMES SALMONELLA TYPHIMURIUM, Strain/Indicator: TA97, Metabolic Activation: NONE, Method: STANDARD PLATE", "result": "active; positive"}, {"measurement": "mutagenic call", "setting": "Test System: AMES SALMONELLA TYPHIMURIUM, Strain/Indicator: TA97, Metabolic Activation: RAT, LIVER, S-9, AROCLOR 1254, Method: STANDARD PLATE", "result": "active; positive"}, {"measurement": "mutagenic call", "setting": "[6]", "result": "active; positive"}, {"measurement": "mutagenic call", "setting": "[7]", "result": "active; positive"}, {"measurement": "mutagenic call", "setting": "[8]", "result": "active; positive"}, {"measurement": "mutagenic call", "setting": "[9]", "result": "active; positive"}, {"measurement": "mutagenic call", "setting": "[10]", "result": "active; positive"}, {"measurement": "mutagenic call", "setting": "Test System: AMES SALMONELLA TYPHIMURIUM, Strain/Indicator: TA102, Metabolic Activation: RAT, LIVER, S-9, AROCLOR 1254, Method: STANDARD PLATE", "result": "active; positive"}, {"measurement": "mutagenic call", "setting": "Test System: AMES SALMONELLA TYPHIMURIUM, Strain/Indicator: TA104, Metabolic Activation: NONE, Method: STANDARD PLATE", "result": "active; positive"}, {"measurement": "mutagenic call", "setting": "Test System: AMES SALMONELLA TYPHIMURIUM, Strain/Indicator: TA104, Metabolic Activation: RAT, LIVER, S-9, AROCLOR 1254, Method: STANDARD PLATE", "result": "active; positive"}]}, {"smiles": "C=CCC1OC(=O)C=CC1O", "note": "(centres undefined)", "values": [{"measurement": "mutagenic call", "setting": "[6]", "result": "inactive; negative"}, {"measurement": "mutagenic call", "setting": "[7]", "result": "inactive; negative"}, {"measurement": "mutagenic call", "setting": "[8]", "result": "inactive; negative"}, {"measurement": "mutagenic call", "setting": "[9]", "result": "inactive; negative"}]}, {"smiles": "CC(C)C(=O)OCC(C)(C)C(O)C(C)C", "note": "(centres undefined)", "values": [{"measurement": "mutagenic call", "setting": "[1]", "result": "inactive; negative"}, {"measurement": "mutagenic call", "setting": "Test System: AMES SALMONELLA TYPHIMURIUM, Strain/Indicator: TA98, Metabolic Activation: RAT LIVER S-9, PHENOBARBITAL AND BETA-NAPHTHOFLAVONE, Method: PREINCUBATION", "result": "inactive; negative"}, {"measurement": "mutagenic call", "setting": "[2]", "result": "inactive; negative"}, {"measurement": "mutagenic call", "setting": "Test System: AMES SALMONELLA TYPHIMURIUM, Strain/Indicator: TA100, Metabolic Activation: RAT LIVER S-9, PHENOBARBITAL AND BETA-NAPHTHOFLAVONE, Method: PREINCUBATION", "result": "inactive; negative"}, {"measurement": "mutagenic call", "setting": "[3]", "result": "inactive; negative"}, {"measurement": "mutagenic call", "setting": "Test System: AMES SALMONELLA TYPHIMURIUM, Strain/Indicator: TA1535, Metabolic Activation: RAT LIVER S-9, PHENOBARBITAL AND BETA-NAPHTHOFLAVONE, Method: PREINCUBATION", "result": "inactive; negative"}, {"measurement": "mutagenic call", "setting": "[4]", "result": "inactive; negative"}, {"measurement": "mutagenic call", "setting": "Test System: AMES SALMONELLA TYPHIMURIUM, Strain/Indicator: TA1537, Metabolic Activation: RAT LIVER S-9, PHENOBARBITAL AND BETA-NAPHTHOFLAVONE, Method: PREINCUBATION", "result": "inactive; negative"}, {"measurement": "mutagenic call", "setting": "Test System: E.COLI, Strain/Indicator: WP2UVRA/PKM101, Metabolic Activation: NONE, Method: PREINCUBATION", "result": "inactive; negative"}, {"measurement": "mutagenic call", "setting": "Test System: E.COLI, Strain/Indicator: WP2UVRA/PKM101, Metabolic Activation: RAT LIVER S-9, PHENOBARBITAL AND BETA-NAPHTHOFLAVONE, Method: PREINCUBATION", "result": "inactive; negative"}]}, {"smiles": "COC(=O)c1cc2c(c3c1c([N+](=O)[O-])cc1c(OC)cccc13)OCO2", "values": [{"measurement": "mutagenic call", "setting": "[6]", "result": "active; positive"}, {"measurement": "mutagenic call", "setting": "[8]", "result": "active; positive"}, {"measurement": "mutagenic call", "setting": "[10]", "result": "inactive; negative"}, {"measurement": "mutagenic call", "setting": "Test System: AMES SALMONELLA TYPHIMURIUM, Strain/Indicator: TA1537, Metabolic Activation: NONE, Method: STANDARD PLATE", "result": "active; positive"}, {"measurement": "mutagenic call", "setting": "Test System: AMES SALMONELLA TYPHIMURIUM, Strain/Indicator: TM677/8-AZAGUANINE, Metabolic Activation: NONE, Method: SUSPENSION/PLATE", "result": "inactive; negative"}]}, {"smiles": "ClC/C=C\\CCl", "values": [{"measurement": "mutagenic call", "setting": "Test System: AMES SALMONELLA TYPHIMURIUM, Strain/Indicator: TA98, Metabolic Activation: HAMSTER, LIVER, S-9, AROCLOR 1254 (10%), Method: STANDARD PLATE", "result": "active; positive"}, {"measurement": "mutagenic call", "setting": "Test System: AMES SALMONELLA TYPHIMURIUM, Strain/Indicator: TA100, Metabolic Activation: HAMSTER, LIVER, S-9, AROCLOR 1254 (10%), Method: STANDARD PLATE", "result": "active; positive"}, {"measurement": "mutagenic call", "setting": "[8]", "result": "active; positive"}, {"measurement": "mutagenic call", "setting": "Test System: AMES SALMONELLA TYPHIMURIUM, Strain/Indicator: TA100, Metabolic Activation: RAT, LIVER, S-9, AROCLOR 1254 (10%), Method: STANDARD PLATE", "result": "active; positive"}, {"measurement": "mutagenic call", "setting": "[5]", "result": "active; positive. reevaluation of results: positive"}, {"measurement": "mutagenic call", "setting": "Test System: MOUSE LYMPHOMA, Strain/Indicator: L5178Y (TK+/TK-), Metabolic Activation: RAT, LIVER, S-9, AROCLOR 1254, Method: SUSPENSION/PLATE", "result": "active; positive. reevaluation of results: positive"}]}]}
